Assay results published in patent publication US11369609B2, “Small molecule Wnt inhibitor as treatment for dyslipidemia” (Yale University, priority 2019, dated 2022).

Legend:
canonical Wnt signaling [1] = assay: Renal fibrosis in unilateral ureteral obstruction (UUO) mice treated with Wnt inhibitor; type: in vivo
Description: UUO surgery procedure was performed as previously described (44). Briefly, mice were anesthetized with isoflurane (3%-5% for induction and 1%-3% for maintenance). Mice were shaved on the left side of the abdomen, a vertical incision was made through the skin with a scalpel, and the skin was retracted. A second incision was made through the peritoneum to expose the kidney. The left ureter was ligated twice 15 mm below the renal pelvis with surgical silk, and the ureter was then severed between the 2 ligatures. Then, the ligated kidney was placed gently back into its correct anatomical position, and sterile saline was added to replenish loss of fluid. The incisions were sutured and mice were individually caged. Buprenorphine was used as an analgesic. The first dose was administered 30 minutes before surgery and then every 12 h for 72 h, at a dose of 0.05 mg/kg subcutaneously. Mice were sacrificed and kidney and blood samples were harvested after perfusion with PBS at 10 days after UUO. Contralateral kidneys were used as a nonfibrotic control for all experiments using this model.
A point-counting method was utilized to evaluate the relative area of the mesangial matrix. PAS-stained glomeruli from each mouse were analyzed using a digital microscope screen grid containing 540 (27×20) points. Masson's trichrome-stained images were evaluated by ImageJ software, and the fibrotic areas were estimated.
Deparaffinized sections were incubated with picrosirius red solution for 1 hour at room temperature. The slides were washed twice with acetic acid solution for 30 seconds per wash. The slides were then dehydrated in absolute alcohol three times, cleared in xylene, and mounted with a synthetic resin. Sirius red staining was analyzed using ImageJ software, and fibrotic areas were quantified.
Paraffin-embedded kidney sections (5 μm thick) were deparaffinized and rehydrated (2 min in xylene, four times; 1 min in 100% ethanol, twice; 1 min in 95% ethanol; 45 s in 70% ethanol; and 1 min in distilled water), and the antigen was retrieved in a 10 mM citrate buffer pH 6 at 98° C. for 60 min. To block the endogenous peroxidase, all sections were incubated in 0.3% hydrogen peroxide for 10 min. The immunohistochemistry was performed using a Vectastain ABC Kit (Vector Laboratories, Burlingame, Calif.). Mouse anti-[…] antibody (1:100) and CPT1a (Abnova; H00001374-DO1P; 1:100) antibody was used. In the negative controls, the primary antibody was omitted and replaced with the blocking solution.
Frozen kidney sections (5 μm) were used for immunofluorescence; double positive labeling with CD31/αSMA, CD31/TGFβR1 and E-cadherin/αSMA was measured. Briefly, frozen sections were dried and placed in acetone for 10 min at −30° C. Once the sections were dried, they were washed twice in phosphate-buffered saline (PBS) for 5 min and then blocked in 2% bovine serum albumin/PBS for 30 min at room temperature. Thereafter, the sections were incubated in primary antibody (1:100) for 1 hour and washed in PBS (5 min) three times. Next, the sections were incubated with the secondary antibodies for 30 min, washed with PBS three times (5 min each), and mounted with mounting medium with DAPI (Vector Laboratories, Burlingame, Calif.). The immune-labeled sections were analyzed by fluorescence microscopy. For each mouse, original magnification of ×400 pictures were obtained from six different areas, and quantification was performed.
(§1) To determine whether inhibition of the Wnt signaling pathway could ameliorate the observed fibrosis, LGK974, a small molecule inhibitor of all secreted Wnts (43), was utilized. FIGS. 21A-21B depict the schematic diagram showing the experimental protocol for LGK974 treatment in diabetic CD-1 and UUO mice.

canonical Wnt signaling [2] = assay: Plasma cytokine array analysis (Luminex) in wnti-treated diabetic mice; type: in vivo
Description: FIG. 22. […] Cytokines and chemokines were measured in plasma by using the cytokine array analysis (Luminex). The plasma of wnti-treated diabetic mice was analyzed for cytokine array analysis. N=5/group. Data are shown as mean±SEM. Tukey test was used for the analysis of statistical significance. *p<0.05.
as §1

kidney endothelial cells = assay: Fatty acid oxidation (14CO2 release from [14C]palmitate) in isolated kidney endothelial cells; type: in vivo, mice; conditions: diabetic CD-1 mice, Wnt inhibitor
Description: Endothelial cells from the kidneys of non-diabetic and diabetic mice were isolated using a standardized kit (Miltenyl Biotech, USA) by following the manufacturer's instructions. Briefly, kidneys were isolated and minced into small pieces. Using a series of enzymatic reactions by treating the tissue with trypsin and Collagenase type I solution, a single cell suspension was created. The pellet was dissolved with CD31 magnetic beads and the CD31-labelled cells were separated on a magnetic separator. The cells were further purified on a column. Cell number was counted by hemocytometer and cells were plated on 0.1% gelatin coated Petri dishes.
Cultured isolated kidney endothelial cells were incubated with medium containing 0.75 mmol/L palmitate (conjugated to 2% free fatty acid-free BSA/[^14C] palmitate at 2 μCi/mL) for 2 h. One mL of the culture medium was transferred to a sealable tube, the cap of which housed a Whatman filter paper disc. ^14CO2 trapped in the media was then released by acidification of media using 60% perchloric acid. Radioactivity that had become adsorbed onto the filter discs was then quantified by liquid scintillation counting.
It is increasingly recognized that defects in central metabolism contribute to kidney fibrosis (69, 76). Defective FA metabolism in EC leads to EndMT events (77). To investigate whether FA metabolism was deranged in the model, radiolabeled [^14C]palmitate uptake experiments were performed in isolated EC from mouse kidneys. FA uptake was higher in isolated EC from the diabetic kidneys of the more fibrotic strain (diabetic CD-1) when compared to kidney EC from the less-fibrotic strain (diabetic C57BL/6). […] FA oxidation (FAO) was also assessed by measuring the ^14CO2 release from radiolabeled [^14C]palmitate in cultured EC isolated from kidneys. […] In the next set of experiments, diabetic CD-1 mice were treated with the FA synthase inhibitor C75, the FAO inhibitor etomoxir, the PPARα agonist fenofibrate, and the cholesterol-lowering drug simvastatin for 4 weeks. […] (FIG. 23A). Fenofibrate and C75 restored the level of GR protein in CD31 positive cells, whereas etomoxir and simvastatin suppressed it (FIG. 23B).

## Cc1cc(-c2ncc(CC(=O)Nc3ccc(-c4cnccn4)cn3)cc2C)ccn1 [LGK974]
Canonical Wnt signaling [1]; LGK974 5 mg/kg
  ECM deposition: greatly diminished
  collagen accumulation: greatly diminished
  glomerulosclerosis: greatly diminished
  relative area fibrosis: greatly diminished
Canonical Wnt signaling [1]; kidney CD31-positive cells
  endothelial GR level: significantly restored
Canonical Wnt signaling [1]; kidney immunohistochemistry
  level of β-catenin: suppressed
Canonical Wnt signaling [2]
  cytokine- and chemokine reprogramming in plasma: disrupts the cytokine- and chemokine reprogramming
  plasma CCL4 level: significantly suppressed
  plasma CCL5 level: elevating
  plasma G-CSF level: significantly suppressed
  plasma IL-1β level: significantly suppressed
  plasma IL-6 level: significantly suppressed
  plasma IL-10 level: significantly suppressed
  plasma MCP-1 level: significantly suppressed
  plasma TNFα level: significantly suppressed
Kidney endothelial cells
  level of FAO in isolated kidney EC: able to restore the level of FAO
